Reference: publication PMC7824111, “Targeting Cytokinin Homeostasis in Rapid Cycling Brassica rapa with Plant Growth Regulators INCYDE and TD-K” (Plants, 2020)

Key:
CRE1/AHK4 = CRE1/AHK4 (Arabidopsis thaliana, UniProt Q9C5U0); assay: E. coli receptor activation assay; type: cell-based
AHK3 = target: T1, AHK3 (Arabidopsis thaliana, UniProt Q9C5U1); assay: E. coli receptor activation assay; type: cell-based
T1 sequence (Q9C5U1 1-1036): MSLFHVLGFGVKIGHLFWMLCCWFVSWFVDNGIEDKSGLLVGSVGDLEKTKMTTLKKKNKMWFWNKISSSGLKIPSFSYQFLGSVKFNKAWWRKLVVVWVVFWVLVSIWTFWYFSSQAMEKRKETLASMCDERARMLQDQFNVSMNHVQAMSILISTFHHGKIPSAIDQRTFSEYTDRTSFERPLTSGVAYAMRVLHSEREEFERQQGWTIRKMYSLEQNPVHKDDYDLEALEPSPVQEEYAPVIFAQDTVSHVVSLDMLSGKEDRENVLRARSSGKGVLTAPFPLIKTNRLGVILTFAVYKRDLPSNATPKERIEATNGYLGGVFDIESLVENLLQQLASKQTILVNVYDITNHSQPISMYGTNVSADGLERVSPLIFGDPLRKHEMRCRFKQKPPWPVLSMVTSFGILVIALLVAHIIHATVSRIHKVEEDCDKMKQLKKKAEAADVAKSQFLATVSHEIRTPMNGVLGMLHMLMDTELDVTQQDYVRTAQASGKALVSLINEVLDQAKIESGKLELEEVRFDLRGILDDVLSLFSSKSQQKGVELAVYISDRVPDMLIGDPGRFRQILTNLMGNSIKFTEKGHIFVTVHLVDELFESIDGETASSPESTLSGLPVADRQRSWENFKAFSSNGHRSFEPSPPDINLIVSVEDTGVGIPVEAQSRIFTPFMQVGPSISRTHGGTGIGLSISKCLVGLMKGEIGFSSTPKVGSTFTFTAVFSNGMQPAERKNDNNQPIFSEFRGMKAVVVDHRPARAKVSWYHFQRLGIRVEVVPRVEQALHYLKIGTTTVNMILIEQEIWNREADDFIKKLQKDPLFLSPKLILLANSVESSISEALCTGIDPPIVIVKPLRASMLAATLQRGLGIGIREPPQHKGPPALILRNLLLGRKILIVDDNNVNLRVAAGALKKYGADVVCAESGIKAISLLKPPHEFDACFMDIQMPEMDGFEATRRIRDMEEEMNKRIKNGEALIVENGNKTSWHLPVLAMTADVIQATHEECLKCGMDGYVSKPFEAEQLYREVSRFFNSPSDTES

CRE1/AHK4, sequence (Q9C5U0 whole entry): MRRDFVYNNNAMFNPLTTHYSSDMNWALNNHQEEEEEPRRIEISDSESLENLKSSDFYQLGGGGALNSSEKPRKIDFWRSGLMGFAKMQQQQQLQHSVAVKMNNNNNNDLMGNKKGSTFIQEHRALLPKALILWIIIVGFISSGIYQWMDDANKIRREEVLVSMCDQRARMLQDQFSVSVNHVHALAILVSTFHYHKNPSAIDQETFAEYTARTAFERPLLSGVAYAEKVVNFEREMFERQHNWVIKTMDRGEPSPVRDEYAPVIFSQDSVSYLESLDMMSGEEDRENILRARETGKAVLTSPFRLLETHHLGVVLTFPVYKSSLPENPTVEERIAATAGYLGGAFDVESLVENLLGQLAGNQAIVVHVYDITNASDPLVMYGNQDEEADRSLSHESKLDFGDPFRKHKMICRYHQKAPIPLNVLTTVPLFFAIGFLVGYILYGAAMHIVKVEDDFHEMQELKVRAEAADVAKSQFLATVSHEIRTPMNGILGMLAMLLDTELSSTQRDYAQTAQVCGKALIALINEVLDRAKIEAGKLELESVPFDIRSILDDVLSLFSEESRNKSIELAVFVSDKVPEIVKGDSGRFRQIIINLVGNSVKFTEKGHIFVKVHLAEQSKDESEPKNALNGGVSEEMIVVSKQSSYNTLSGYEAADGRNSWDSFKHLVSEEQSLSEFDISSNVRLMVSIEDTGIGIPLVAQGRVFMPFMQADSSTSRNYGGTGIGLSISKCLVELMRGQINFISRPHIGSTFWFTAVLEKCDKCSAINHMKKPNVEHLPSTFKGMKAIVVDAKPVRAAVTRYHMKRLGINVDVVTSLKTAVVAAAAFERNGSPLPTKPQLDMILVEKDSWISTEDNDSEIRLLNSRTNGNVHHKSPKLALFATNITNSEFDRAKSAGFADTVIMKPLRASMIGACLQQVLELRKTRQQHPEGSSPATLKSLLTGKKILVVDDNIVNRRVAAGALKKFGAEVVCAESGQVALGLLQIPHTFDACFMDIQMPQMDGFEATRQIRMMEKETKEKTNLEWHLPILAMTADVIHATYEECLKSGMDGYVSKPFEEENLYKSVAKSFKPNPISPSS

Compound | E. coli receptor activation assay (CRE1/AHK4) | E. coli receptor activation assay (AHK3)
O=C(NCc1ccccc1)Nc1cnns1 [TD-BA] | ~ 50 μM | 
O=C(Nc1ccccc1)Nc1cnns1 [TDZ, 1-phenyl-3-(1,2,3-thiadiazol-5-yl) urea] | ~ 1 μM | ~ 10 nM
C/C(=C\CNc1ncnc2[nH]cnc12)CO [tZ, trans-zeatin] | ~ 1 μM | ~ 10 nM
